Measured values reported in publication PMC6718442, “11β-Hydroxysteroid dehydrogenases control access of 7β,27-dihydroxycholesterol to retinoid-related orphan receptor γ” (Journal of Lipid Research, 2019).
Several values for one entry are separate records, joined by “and”; a condition that tells them apart may be missing. Equal values may be shown once.

What was measured:
11β-HSD2 [1] = target: T1, 11β-HSD2 (Homo sapiens, UniProt P80365); assay: Inhibition of 11β-HSD2-dependent oxidation of cortisol in HEK-293 cell lysates; type: biochemical; conditions: for IC50: human enzyme, 50 nM cortisol, 10 min, 37°C, read-out: IC50, 11β-HSD2-dependent conversion of cortisol to cortisone
T1 construct: expressed in transfected cells
T1 sequence (P80365 1-405): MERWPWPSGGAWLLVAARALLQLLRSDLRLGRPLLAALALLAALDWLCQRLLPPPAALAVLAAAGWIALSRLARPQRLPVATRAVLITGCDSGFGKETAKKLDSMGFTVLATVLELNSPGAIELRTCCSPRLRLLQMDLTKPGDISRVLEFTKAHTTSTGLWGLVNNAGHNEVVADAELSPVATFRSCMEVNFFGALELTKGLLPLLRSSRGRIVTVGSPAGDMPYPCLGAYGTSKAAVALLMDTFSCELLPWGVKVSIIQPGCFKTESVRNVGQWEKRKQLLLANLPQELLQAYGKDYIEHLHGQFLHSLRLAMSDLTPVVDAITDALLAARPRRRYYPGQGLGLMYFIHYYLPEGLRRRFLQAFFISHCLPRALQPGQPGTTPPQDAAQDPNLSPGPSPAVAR
Experimental: 11β-HSD1 and 11β-HSD2 enzyme activities were assessed in lysates of HEK-293 cells stably expressing the respective enzyme as reported earlier ([40]). Briefly, 11β-HSD1-dependent oxoreductase activity was determined by the incubation of lysates with 200 nM of radiolabeled cortisone, 500 μM of NADPH, and the test substance or vehicle for 10 min at 37°C. 11β-HSD2-dependent oxidation of cortisol was measured instead by the addition of 50 nM of radiolabeled cortisol and 500 μM of NAD^+. The enzymatic reaction was stopped by introducing an excess amount of unlabeled cortisone and cortisol (1:1, 2 mM unlabeled each, in methanol). Cortisone and cortisol were separated using TLC and a chloroform and methanol (9:1, v/v) mixture. The bands were detected under UV light, scraped off the plate, and metabolism of the radiolabeled substrate was then evaluated by scintillation counting and the substrate conversion determined and compared with the control sample. Data (mean ± SD) were normalized to the control (DMSO) sample and obtained from at least three independent experiments.

11β-HSD2 [2] = target: T1, 11β-HSD2; assay: 11β-HSD2-dependent metabolism of 7-oxygenated 27OHCs in intact HEK-293 cells expressing 11β-HSD2; type: cell-based; conditions: for Metabolism by 11β-HSD2 in intact cells (in words): 500 nM substrate, 30 min
Experimental: Fifty thousand stably transfected HEK-293 cells expressing either 11β-HSD2 [clone AT8 ([34])] or 11β-HSD1 and hexose-6-phosphate dehydrogenase (H6PDH) [clone HHH7 ([35])] were seeded in poly-L-lysine-coated 96-well plates and incubated for 24 h. H6PDH provides the cofactor NADPH and is required for an efficient oxoreduction reaction by 11β-HSD1 ([36]). The medium was changed to steroid- and phenol red-free DMEM (DMEM SF) for another 2 h and the cells were then treated with 1 μM of 7k27OHC in the presence or absence of 1 μM of T0504 (to inhibit 11β-HSD1) or 0.5 μM of 7β27OHC or 7α27OHC in the presence or absence of 5 μM of glycyrrhetinic acid (GA) (to inhibit 11β-HSD2). Metabolic conversion was determined after 0.5 h for 11β-HSD2 and after 1 h for 11β-HSD1.
Ice-cold acetonitrile:isopropanol (7:3, v/v) mixture containing either 100 nM deuterium-labeled 7β27OHC or corticosterone as internal standards were used to extract oxysterols from cell culture supernatants. Additionally, 1.5% (v/v) of a standard solution of the antioxidant butylated hydroxytoluene (BHT) and the peroxide reducing agent triphenylphosphine (TPP) (10 mg BHT and 25 mg TPP in 10 ml ethanol) was added ([37]). In experiments with SW-620 cells, oxysterols were extracted from cell supernatants and cells. The samples were incubated for 30 min at 4°C and 700 rotations per minute, centrifuged (16,000 g, 10 min, 4°C), and the supernatant evaporated to dryness under nitrogen to minimize oxidation from atmospheric oxygen. After reconstitution in 50 μl of methanol:ultra-pure water (1:1, v/v), the samples were again centrifuged (16,000 g, 10 min, 4°C) and the supernatants analyzed. Data (mean ± SD) were obtained from three independent experiments.
An Agilent 1290 Infinity UHPLC binary solvent delivery system including a temperature controlled autosampler and a column oven coupled to an Agilent 6490 triple quadrupole mass spectrometer with a jet stream electrospray ionization interface (AJS-ESI) (Agilent Technologies) was used to analyze oxysterols. […]

SMILES | IC50 (11β-HSD2 [1]) | Inhibition of human 11β-HSD2 (in words) (11β-HSD2 [1]; not shown) | Metabolism by 11β-HSD2 in intact cells (in words) (11β-HSD2 [2]) | Vapp cell intact (11β-HSD2 [2]; intact HEK-293 cells, substrate concentration 500 nM)
CC(CO)CCC[C@@H](C)[C@H]1CC[C@H]2[C@@H]3C(=O)C=C4C[C@@H](O)CC[C@]4(C)[C@H]3CC[C@]12C (stereo partly drawn) [7k27OHC, 7-keto,27-hydroxycholesterol] | 15 ± 1 nM |  |  | 
C[C@@H](CO)CCC[C@@H](C)[C@H]1CC[C@H]2[C@@H]3[C@H](O)C=C4C[C@@H](O)CC[C@]4(C)[C@H]3CC[C@]12C [7α27OHC] |  | did not inhibit | lack of 7α27OHC metabolism | 
CC(CO)CCC[C@@H](C)[C@H]1CC[C@H]2[C@@H]3[C@@H](O)C=C4C[C@@H](O)CC[C@]4(C)[C@H]3CC[C@]12C (stereo partly drawn) [7β27OHC, 7β,27-dihydroxycholesterol] | 11 ± 2 nM |  | exclusive oxidation of 7β27OHC to 7k27OHC | 0.6 ± 0.1 nmol·h^−1·mg total protein^−1 and 0.6 ± 0.1^b nmol·h^−1·mg total protein^−1
